According to patent US20050261283A1, “Methods and compositions for the treatment of graft failure” (priority 2002, published 2005):
In brackets after ≈: the same amount, converted by molar mass. Counter-ions that a name gives are not always drawn.

Tests used:
[1] = system: human aortic vascular smooth muscle cell (HASOM cells); test: PDGF-BB induced migration of human aortic vascular smooth muscle cells, Boyden chamber; type: cell-based
Protocol: The cells were then cultured in the presence of these agents for forty-eight hours prior to the migration assay. […] Each well contained an insert with a polycarbonate filter having 8 μm pores. In preparation for the migration assays, the membranes were coated with 0.1% gelatin for 8 hours, aspirated, and allowed to dry for 2 hours.
The M-199 media containing 0.5% BSA and 20 ng/ml human PDGF-B (hPDGF-BB) was placed in the bottom Boyden chamber. Cells were incubated at 5% CO2 at 37° C. for twelve hours and the cells lying on the upper surface of the membrane were scraped off. The insert membranes were removed and the cells on the lower surface of each membrane were stained with hematoxylin. Cell migration was then quantified by counting the cells in five random high-power fields on the lower surface of the membrane. All assays were run in triplicate.

[2] = system: cells of porcine origin from a primary explant of porcine carotid artery; test: PDGF induced migration of cells of porcine origin (carotid artery explant), Boyden chamber; type: cell-based; conditions: hPDGF-BB 20 ng/ml; second passage cells; FIG. 13

Compound: Cc1ccc(NC(=O)c2ccc(CN3CCN(C)CC3)cc2)cc1Nc1nccc(-c2cccnc2)n1 [Gleevec, imatinib mesylate]
- inhibition of PDGF induced migration of HASOM cells ([1]; hPDGF-BB 20 ng/ml, 48 h pre-treatment, 12 h migration, FIG. 12): potently inhibited PDGF induced migration of HASOM cells in a dose dependent manner
- inhibition of PDGF-B induced migration of porcine cells [2]: inhibited PDGF-B induced migration of theses porcine cells a dose dependent manner

Compound: CO[C@H]1C[C@@H]2CC[C@@H](C)[C@@](O)(O2)C(=O)C(=O)N2CCCC[C@H]2C(=O)O[C@H]([C@H](C)C[C@@H]2CC[C@@H](O)[C@H](OC)C2)CC(=O)[C@H](C)/C=C(\C)[C@@H](O)[C@@H](OC)C(=O)[C@H](C)C[C@H](C)/C=C/C=C/C=C/1C [rapamycin]
- IC50 ([1]; Homo sapiens, in vitro VSMC migration, read-out: IC50 for blocking VSMC migration): 1 to 5 ng/mL (≈ 1.09 to 5.47 nM)
